Results published in PMC10485820 (European Journal of Pharmaceutical Sciences, 2023).
In brackets after ≈: the same amount, converted by molar mass.

What was measured:
[1] = target: T1, breast cancer resistance protein (Homo sapiens, UniProt Q9UNQ0); assay: Preclinical transporter substrate assessment (unpublished); assay type: in vitro ADME
T1 sequence (Q9UNQ0 1-655): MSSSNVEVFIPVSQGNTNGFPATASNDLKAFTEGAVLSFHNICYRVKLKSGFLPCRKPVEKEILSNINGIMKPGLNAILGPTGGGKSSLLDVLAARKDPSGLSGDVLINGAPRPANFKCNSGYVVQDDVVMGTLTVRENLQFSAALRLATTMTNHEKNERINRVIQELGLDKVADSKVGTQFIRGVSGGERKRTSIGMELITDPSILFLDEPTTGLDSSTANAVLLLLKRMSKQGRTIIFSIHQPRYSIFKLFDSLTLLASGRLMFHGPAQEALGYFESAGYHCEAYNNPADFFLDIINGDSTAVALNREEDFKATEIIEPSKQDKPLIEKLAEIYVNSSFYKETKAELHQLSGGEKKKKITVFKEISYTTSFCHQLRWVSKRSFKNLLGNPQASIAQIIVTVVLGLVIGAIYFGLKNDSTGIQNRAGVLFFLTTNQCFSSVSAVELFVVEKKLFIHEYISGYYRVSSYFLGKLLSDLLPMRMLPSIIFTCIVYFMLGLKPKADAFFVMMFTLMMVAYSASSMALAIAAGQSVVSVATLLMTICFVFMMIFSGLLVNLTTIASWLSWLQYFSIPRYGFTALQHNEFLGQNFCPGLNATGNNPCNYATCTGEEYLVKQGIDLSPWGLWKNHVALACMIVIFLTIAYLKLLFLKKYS

[2] = Bioavailability in beagle dogs (unpublished); conditions: dog, in vivo, oral
glycosylated hemoglobin = assay: Multidose exploratory clinical study of T2DM patients (CTR20182505): glycosylated hemoglobin; assay type: in vivo, human; conditions: after six doses of oral administration
[3] = Multidose clinical study of biweekly HSK7653 IR tablets in T2DM patients (CTR20182505): pharmacokinetics; assay type: in vivo, human; conditions: biweekly administration of IR tablets
[4] = Mass balance study (CTR20201559); assay type: in vivo, human
OAT1 = target: T2, OAT1 (Homo sapiens, UniProt Q4U2R8); assay: Preclinical transporter substrate assessment (unpublished); assay type: in vitro ADME
T2 sequence (Q4U2R8 1-563): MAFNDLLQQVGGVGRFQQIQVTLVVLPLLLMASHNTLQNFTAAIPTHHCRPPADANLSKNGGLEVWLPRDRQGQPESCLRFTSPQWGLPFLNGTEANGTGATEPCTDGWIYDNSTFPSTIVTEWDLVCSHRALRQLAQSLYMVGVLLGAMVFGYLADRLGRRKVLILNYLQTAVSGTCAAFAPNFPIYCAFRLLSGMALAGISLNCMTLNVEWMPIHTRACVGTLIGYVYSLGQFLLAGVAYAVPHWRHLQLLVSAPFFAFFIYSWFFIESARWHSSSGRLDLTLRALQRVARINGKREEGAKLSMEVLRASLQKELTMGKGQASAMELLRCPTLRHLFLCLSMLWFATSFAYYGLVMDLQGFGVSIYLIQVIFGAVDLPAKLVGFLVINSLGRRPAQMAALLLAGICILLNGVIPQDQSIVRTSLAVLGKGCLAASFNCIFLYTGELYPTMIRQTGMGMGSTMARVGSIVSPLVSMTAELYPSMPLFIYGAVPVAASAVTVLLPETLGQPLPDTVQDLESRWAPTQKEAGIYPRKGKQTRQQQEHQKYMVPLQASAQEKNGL

[5] = Physicochemical parameters (log P, pKa) from experimental outcomes; conditions: Measured (in vitro)
Source text: The development of the DLM was complex.

OCT2 = target: T3, OCT2 (Homo sapiens, UniProt O15244); assay: Preclinical transporter substrate assessment (unpublished); assay type: in vitro ADME
T3 sequence (O15244 1-555): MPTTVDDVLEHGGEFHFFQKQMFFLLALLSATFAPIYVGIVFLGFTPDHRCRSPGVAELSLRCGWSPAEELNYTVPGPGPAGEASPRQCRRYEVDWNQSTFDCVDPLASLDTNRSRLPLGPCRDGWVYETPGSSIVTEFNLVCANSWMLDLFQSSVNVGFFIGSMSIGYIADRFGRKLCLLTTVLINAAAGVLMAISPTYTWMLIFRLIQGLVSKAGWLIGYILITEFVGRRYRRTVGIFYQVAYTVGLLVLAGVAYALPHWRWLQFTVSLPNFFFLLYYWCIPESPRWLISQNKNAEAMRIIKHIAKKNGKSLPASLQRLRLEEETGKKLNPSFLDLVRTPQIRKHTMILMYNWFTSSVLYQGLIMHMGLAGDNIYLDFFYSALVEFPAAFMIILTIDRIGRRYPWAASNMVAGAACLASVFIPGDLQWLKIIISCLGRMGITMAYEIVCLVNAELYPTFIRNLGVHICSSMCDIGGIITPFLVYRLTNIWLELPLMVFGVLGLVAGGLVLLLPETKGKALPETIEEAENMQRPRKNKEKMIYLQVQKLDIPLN

[6] = Predicted by SIVA from dissolution profile in FaSSGF
Source text: (§1) Based on the results of the two-stage biorelevant dissolution test (see Fig. 4 in 3.2 section), the precipitation parameters in the DLM were not assessed, and the critical supersaturation ratio (CSC) and precipitation rate constant (PRC) were set to the minimum values, respectively.
(§2) Furthermore, solubility parameters, representing the influence of pH and bile salts on the solubility, were estimated by Eq. (3) according to the experimental results.
(§3) Accordingly, it was unnecessary to evaluate the precipitation parameters for the development of DLM, which (CSC and PCR) were set to minimum values in DLM. Most importantly, the dissolution parameters, such as heff and DLMs, were estimated by Eq. (4) from the dissolution profile in 300 mL FaSSGF medium. Meanwhile, the disintegration lag time of the formulation was evaluated with the method of Weibull function, so that the dissolution profile could be captured by Eq. (4).

MATE1 = target: T4, MATE1 (Homo sapiens, UniProt Q96FL8); assay: Preclinical transporter substrate assessment (unpublished); assay type: in vitro ADME
T4 sequence (Q96FL8 1-570): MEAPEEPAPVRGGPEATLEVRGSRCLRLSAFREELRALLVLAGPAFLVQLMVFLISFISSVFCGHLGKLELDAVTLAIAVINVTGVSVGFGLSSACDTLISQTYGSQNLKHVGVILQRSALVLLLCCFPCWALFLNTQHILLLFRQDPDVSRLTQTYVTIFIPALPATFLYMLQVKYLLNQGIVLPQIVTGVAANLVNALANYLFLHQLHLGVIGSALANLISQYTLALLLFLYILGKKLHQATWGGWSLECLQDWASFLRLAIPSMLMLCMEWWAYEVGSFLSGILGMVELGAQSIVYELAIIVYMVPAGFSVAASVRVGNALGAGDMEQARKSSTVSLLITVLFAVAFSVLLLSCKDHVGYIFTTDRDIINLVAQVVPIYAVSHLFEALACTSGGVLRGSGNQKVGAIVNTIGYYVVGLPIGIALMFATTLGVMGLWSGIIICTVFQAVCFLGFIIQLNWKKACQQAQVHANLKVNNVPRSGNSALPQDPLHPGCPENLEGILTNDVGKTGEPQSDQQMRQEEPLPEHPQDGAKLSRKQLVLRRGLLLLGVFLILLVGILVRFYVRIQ

P-glycoprotein (P-gp) = P-glycoprotein (P-gp) (Homo sapiens, UniProt P08183); assay: as above; assay type: in vitro ADME
P-glycoprotein (P-gp), sequence (P08183 whole entry): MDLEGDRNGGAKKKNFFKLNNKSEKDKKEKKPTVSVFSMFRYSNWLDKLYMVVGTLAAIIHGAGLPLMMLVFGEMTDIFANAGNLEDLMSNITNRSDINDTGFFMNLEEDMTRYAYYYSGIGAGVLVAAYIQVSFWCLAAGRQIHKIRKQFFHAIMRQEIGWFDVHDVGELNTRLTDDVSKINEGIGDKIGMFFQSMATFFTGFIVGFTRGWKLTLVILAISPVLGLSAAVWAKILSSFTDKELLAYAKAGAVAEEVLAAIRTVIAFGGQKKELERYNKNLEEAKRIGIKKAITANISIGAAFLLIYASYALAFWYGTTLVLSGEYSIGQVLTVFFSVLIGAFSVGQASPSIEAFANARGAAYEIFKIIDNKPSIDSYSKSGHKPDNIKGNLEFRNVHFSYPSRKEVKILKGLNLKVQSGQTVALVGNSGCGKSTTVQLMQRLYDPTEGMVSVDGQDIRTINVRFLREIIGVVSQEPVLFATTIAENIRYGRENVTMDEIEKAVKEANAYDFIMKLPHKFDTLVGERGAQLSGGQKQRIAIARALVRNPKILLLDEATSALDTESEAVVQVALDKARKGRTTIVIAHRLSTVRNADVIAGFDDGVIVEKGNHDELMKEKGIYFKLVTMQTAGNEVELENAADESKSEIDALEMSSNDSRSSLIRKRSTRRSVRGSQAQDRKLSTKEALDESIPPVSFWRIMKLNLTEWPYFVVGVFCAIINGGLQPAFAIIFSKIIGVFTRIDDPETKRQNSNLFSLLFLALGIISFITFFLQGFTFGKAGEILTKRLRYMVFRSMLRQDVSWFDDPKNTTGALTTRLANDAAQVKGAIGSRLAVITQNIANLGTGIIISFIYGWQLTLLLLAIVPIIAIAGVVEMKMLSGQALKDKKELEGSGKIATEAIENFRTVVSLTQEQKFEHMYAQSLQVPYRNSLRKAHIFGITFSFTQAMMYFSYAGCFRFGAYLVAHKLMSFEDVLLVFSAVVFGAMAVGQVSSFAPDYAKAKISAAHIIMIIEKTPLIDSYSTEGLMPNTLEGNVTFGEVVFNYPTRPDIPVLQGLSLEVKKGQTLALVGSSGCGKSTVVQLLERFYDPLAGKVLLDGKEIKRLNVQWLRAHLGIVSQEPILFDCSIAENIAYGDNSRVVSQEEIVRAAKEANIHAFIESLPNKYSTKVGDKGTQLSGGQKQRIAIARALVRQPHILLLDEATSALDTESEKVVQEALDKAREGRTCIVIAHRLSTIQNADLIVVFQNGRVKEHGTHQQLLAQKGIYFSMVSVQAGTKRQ

[7] = mass balance study, unpublished

Source text for physchem: as §1, §2, §3

- Transporter substrate assessment [1]: not a common transport substrate
- bioavailability [2]: 70.9%
- Accumulation [3]: no accumulation
- Fecal excretion of unchanged compound ([4]; mass balance study): 7.40%
- Unchanged drug excreted by the kidney ([4]; mass balance study): 68.1%
- Unrecovered radioactive substances (unknown pathway) ([4]; mass balance study): 4.1%
- Detected (recovered) radioactivity [4, 7]: 95.9%
- Unextracted radioactive substrates in feces [4, 7]: 2.99%
- Unextracted radioactive substrates in urine [4, 7]: 1.99%
- Unextracted radioactivity in urine and feces (sum) ([4]; sum of unextracted radioactivity in urine and feces): approximately 4.98%
- Transporter substrate assessment (OAT1): not a common transport substrate
- logP [5]: 1.42
- pKa ([5]; Monoprotic base): 6.75
- Transporter substrate assessment (OCT2): not a common transport substrate
- solubility (physchem): 7 µg/mL (≈ 15 µM)
- DLM Scalar values ([6]; All segments): 3.009
- heff cut-off value ([6]; Hintz-Johnson): 36.345 μm
- Transporter substrate assessment (MATE1): not a common transport substrate
- Transporter substrate assessment (P-glycoprotein (P-gp)): not a common transport substrate
Compound: CS(=O)(=O)n1cc2c(n1)CN([C@@H]1C[C@H](N)[C@@H](c3cc(F)ccc3F)O[C@@H]1C(F)(F)F)C2 [HSK7653]
- Glycosylated hemoglobin change (glycosylated hemoglobin): significantly reduced
